Measured values from paper PMC10122656, “Siglec-6 mediates the uptake of extracellular vesicles through a noncanonical glycolipid binding pocket” (Nature Communications, 2023).
Several values for one entry are separate records, joined by “and”; a condition that tells them apart may be missing. Identical values can stand only once.

Assays:
WT Siglec-6 CHO cells = target: T1, WT Siglec-6 CHO cells (Homo sapiens, UniProt O43699); assay: Cell assay (liposome/EV binding, flow cytometry);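 as to liposome binding, fluorescence signal (replicates): AF647 fluorescence intensity from 0.1 mol% AF647–PEG45–DSPE in liposomes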; type: cell-based; conditions: for nGLL binding to WT Siglec-6 CHO cells (in words): 3 mol% nGL in liposomes; for Binding of nGL liposomes relative to liposomes formulated with 3 mol% nGL 5 (Fig. 3g): WT Siglec-6 CHO cells; for Binding of nGL liposomes relative to liposomes formulated with 3 mol% nGL 5 (Fig. 3g) / Binding of liposomes to WT Siglec-6 CHO cells relative to liposomes formulated without a ligand (Fig. 3c): replicates; for Binding of liposomes to WT Siglec-6 CHO cells relative to liposomes formulated without a ligand (Fig. 3c): 3 mol% glycolipid, Cer = native ganglioside, Amide = amide-linked nGL
T1 construct: expressed in transfected cells
T1 sequence (O43699 27-453): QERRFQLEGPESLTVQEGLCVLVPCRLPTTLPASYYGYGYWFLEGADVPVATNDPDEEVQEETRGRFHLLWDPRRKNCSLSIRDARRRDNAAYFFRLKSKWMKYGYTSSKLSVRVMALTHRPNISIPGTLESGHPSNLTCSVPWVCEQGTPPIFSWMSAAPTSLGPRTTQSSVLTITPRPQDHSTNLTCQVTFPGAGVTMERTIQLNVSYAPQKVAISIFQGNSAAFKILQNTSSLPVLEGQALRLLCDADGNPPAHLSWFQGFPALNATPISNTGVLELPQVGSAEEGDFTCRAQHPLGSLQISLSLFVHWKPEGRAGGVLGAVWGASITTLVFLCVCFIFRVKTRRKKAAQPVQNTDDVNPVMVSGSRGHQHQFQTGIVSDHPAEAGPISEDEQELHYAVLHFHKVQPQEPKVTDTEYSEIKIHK
Method: (§1) Stock lipids (DSPC, Cholesterol, PEG45–DSPE) solutions were prepared by solvating the lipids in chloroform. An appropriate volume of each lipid solution was transferred to a glass test tube to reach the desired mol% of the component. The chloroform was then removed under N2 gas to yield a lipid thin film. Once dry, 100 µL of DMSO was added to the lipid-containing test tube and then the functional lipids (ganglioside, AF647–PEG45–DSPE, Siglec ligand–PEG45–DSPE, pHrodo–PEG45–DSPE, NGL) was added from their respect DMSO stock solution. The lipid mixture was then stored at −80 °C until completely frozen at which point excess DMSO was removed via lyophilization. Dry lipids were then stored at −80 °C until they were extruded. Lipid suppliers can be found in Supplementary Table 4.
(§2) Dry lipids were then hydrated in 1 mL of PBS. The lipids were then sonicated in a bath sonicator in a cycle of 1 min on, 5 min off for a total of five cycles. Liposomes were then extruded using an Avanti mini extruder first using an 800 nm filter and then a 100 nm filter yielding liposomes that were 130 ± 35 nm (Supplementary Table 5) measured using a Malvern Panalytical Zetasizer Nano S. Liposomes were stored at 4 °C.
(§3) 200,000 cells/well were plated into a 96-well U-bottom microplate and centrifuged at 300 × g for 5 min. The cells were then resuspended in 50 µL of 50 µM liposome/50 µg/mL (protein concentration) of EV solution in DMEM F12 5% FBS and incubated at 37 °C for 30 min. Excess liposomes were then removed via centrifuged at 300 × g for 5 min followed by washing the cells with FACS solution. The cells were then resuspended in (1:250 V/V) anti-Siglec-flow buffer (1% V/V FBS, 500 µM, EDTA Hank’s Balanced Salt Solution pH 7.4), solution and left to rest on ice for 30 min. The cells were then centrifuged again at 300 × g for 5 min and the cells were resuspended in FACS buffer solution and were then ready for analysis by flow cytometry. Information regarding antibody clone, catalog number supplier, label isotype, and dilution can be found in Supplementary Table 6. The Siglec-positive cells were gated on for liposome-binding analysis (Supplementary Fig. 1b).
(§4) Flow cytometry measurements were collected on a 5-laser Fortessa X-20 (BD Bioscience). All the resulting data were analyzed using FlowJo (10.5.3) software (BD Biosciences).

R122A Siglec-6 CHO cells = target: T2, R122A Siglec-6 CHO cells (Homo sapiens, UniProt O43699, R122A); assay: Cell assay (liposome/EV binding, flow cytometry);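 as to liposome binding, fluorescence signal (replicates): AF647 fluorescence intensity from 0.1 mol% AF647–PEG45–DSPE in liposomes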; type: cell-based; conditions: for Binding of nGL liposomes relative to liposomes formulated with 3 mol% nGL 5 (Fig. 3g): R122A Siglec-6 CHO cells, replicates; for liposome binding, fluorescence signal (replicates): sheet Figure S18b, cells not given; for nGLL binding to R122A Siglec-6 CHO cells (in words): 3 mol% nGL in liposomes, compared to 3 mol% 5
T2 construct: expressed in transfected cells
T2 sequence (O43699 27-453 R122A): as the sequence (O43699 27-453) above, with R96A counted along it
Method: as §1, §2, §3, §4

Siglec-1 fragment = Siglec-1 fragment (Homo sapiens, UniProt Q9BZZ2); assay: Direct ESI-MS binding assay; conditions: oligosaccharide moiety of the ganglioside; 3.6 µM Siglec-1 fragment, 20-140 µM ligand; table gives replicates, text mean ± SD; read-out: dissociation constant (Kd) of soluble Siglec-1 to the ganglioside oligosaccharide
Siglec-1 fragment, sequence (Q9BZZ2 20-136 limits assumed): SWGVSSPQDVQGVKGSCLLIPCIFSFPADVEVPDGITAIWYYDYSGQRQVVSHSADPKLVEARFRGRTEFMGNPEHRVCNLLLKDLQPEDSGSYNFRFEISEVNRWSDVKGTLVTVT
Method: The affinities of ganglioside (GM1, GM2, GM3, and GD1a) oligosaccharides (L) for the Siglec-1 fragment were measured by the direct ESI-MS assay[1]. A reference protein (Pref) was added to the ESI solutions in order to correct mass spectra for any nonspecific binding that occurred during the ESI process[2]. […] Direct ESI-MS measurements were performed with nanoflow ESI in positive ion mode (voltage ~1 kV) on a Q-Exactive Orbitrap mass spectrometer (Thermo Fisher Scientific). Automatic gain control (AGC) target, the maximum inject time, capillary temperature, and S-lens RF level were set to 1 × 10^6, 100 ms, 150, and 100 °C, respectively. The resolution was 17,500 at m/z 200. Data acquisition and processing were carried out using Xcalibur (Thermo Fisher, version 4.1).

WT Siglec-1 CHO cells = target: T3, WT Siglec-1 CHO cells (Homo sapiens, UniProt Q9BZZ2); assay: Cell assay (liposome/EV binding, flow cytometry); type: cell-based; design: GM1 liposome binding to Siglec-1 CHO cells, flow cytometry (Fig. 1b) / Binding of liposomes with increasing ganglioside content against Siglec-1 CHO cells (Fig. 1c) / Liposome binding to Siglec-1-expressing CHO cells in the cell assay (Fig. 1f): unit not given here
T3 construct: expressed in transfected cells
T3 sequence (Q9BZZ2 20-1709): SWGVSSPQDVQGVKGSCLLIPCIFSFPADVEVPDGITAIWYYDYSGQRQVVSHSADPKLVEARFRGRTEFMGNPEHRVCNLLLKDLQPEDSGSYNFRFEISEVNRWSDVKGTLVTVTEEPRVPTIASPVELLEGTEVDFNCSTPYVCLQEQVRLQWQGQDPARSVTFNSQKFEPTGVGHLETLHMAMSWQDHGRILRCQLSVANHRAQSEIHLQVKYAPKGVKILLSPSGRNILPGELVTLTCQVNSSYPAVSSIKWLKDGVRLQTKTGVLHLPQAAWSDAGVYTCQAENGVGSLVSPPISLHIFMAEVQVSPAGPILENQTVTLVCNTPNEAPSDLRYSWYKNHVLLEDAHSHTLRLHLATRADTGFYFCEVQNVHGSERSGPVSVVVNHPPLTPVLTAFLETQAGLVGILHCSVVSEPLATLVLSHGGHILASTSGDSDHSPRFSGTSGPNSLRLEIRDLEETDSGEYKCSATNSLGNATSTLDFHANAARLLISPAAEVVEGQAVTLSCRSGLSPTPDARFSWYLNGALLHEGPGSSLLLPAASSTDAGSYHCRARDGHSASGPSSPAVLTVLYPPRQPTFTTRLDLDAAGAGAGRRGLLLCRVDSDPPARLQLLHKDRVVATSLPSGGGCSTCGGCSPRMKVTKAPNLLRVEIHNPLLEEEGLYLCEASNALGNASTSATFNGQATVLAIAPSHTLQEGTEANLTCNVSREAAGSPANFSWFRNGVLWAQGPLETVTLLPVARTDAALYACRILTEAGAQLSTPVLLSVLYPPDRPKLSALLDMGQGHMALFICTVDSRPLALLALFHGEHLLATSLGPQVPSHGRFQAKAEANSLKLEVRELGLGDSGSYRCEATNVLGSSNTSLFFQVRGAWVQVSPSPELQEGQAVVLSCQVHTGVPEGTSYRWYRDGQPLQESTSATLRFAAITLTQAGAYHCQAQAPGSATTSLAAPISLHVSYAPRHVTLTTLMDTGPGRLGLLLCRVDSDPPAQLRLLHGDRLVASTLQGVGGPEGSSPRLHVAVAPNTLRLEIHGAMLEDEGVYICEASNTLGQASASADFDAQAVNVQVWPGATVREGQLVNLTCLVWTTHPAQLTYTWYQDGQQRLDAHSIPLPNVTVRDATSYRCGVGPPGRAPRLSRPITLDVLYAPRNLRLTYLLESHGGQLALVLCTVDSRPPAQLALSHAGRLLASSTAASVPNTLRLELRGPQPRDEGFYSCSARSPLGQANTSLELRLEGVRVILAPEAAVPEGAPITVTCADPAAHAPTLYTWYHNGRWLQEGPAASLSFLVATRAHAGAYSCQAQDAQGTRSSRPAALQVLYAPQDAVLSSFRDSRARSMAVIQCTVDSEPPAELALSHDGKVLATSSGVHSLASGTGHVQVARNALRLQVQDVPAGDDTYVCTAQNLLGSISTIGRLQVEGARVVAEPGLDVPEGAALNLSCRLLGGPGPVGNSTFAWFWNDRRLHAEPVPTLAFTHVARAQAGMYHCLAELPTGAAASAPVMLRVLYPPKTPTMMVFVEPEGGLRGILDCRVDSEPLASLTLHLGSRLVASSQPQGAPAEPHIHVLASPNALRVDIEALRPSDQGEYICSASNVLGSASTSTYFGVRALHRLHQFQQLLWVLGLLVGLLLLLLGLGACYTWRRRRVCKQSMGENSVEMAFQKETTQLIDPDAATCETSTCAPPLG
Method: as §1, §2, §3, §4

[1] = system: untransfected (UT) CHO cells; assay: Cell assay (liposome/EV binding, flow cytometry); type: cell-based, Chinese Hamster; conditions: sheet Figure S22b, CHO;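 also: AF647 fluorescence intensity from 0.1 mol% AF647–PEG45–DSPE in liposomes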
Method: as §1, §2, §3, §4

[2] = sheet Figure S18a, cells not given
[3] = sheet Figure S17, cells not given, three experiments, each with its own Naked control

CCCCCCCCCCCCCCCCOCC(COCCCCCCCCCCCCCCCC)OCc1cn(CCO[C@@H]2O[C@H](CO)[C@@H](O[C@@H]3O[C@H](CO)[C@H](O)[C@H](O[C@]4(C(=O)O)C[C@H](O)[C@@H](NC(C)=O)[C@H]([C@H](O)[C@H](O)CO)O4)[C@H]3O)[C@H](O)[C@H]2NC(C)=O)nn1 [nGL 9]
nGLL binding to WT Siglec-6 CHO cells (in words) (WT Siglec-6 CHO cells): modestly lower | Binding of nGL liposomes relative to liposomes formulated with 3 mol% nGL 5 (Fig. 3g) (WT Siglec-6 CHO cells): 0.77 and 0.6 and 0.59 and 0.63 | liposome binding, fluorescence signal (replicates) (WT Siglec-6 CHO cells; [2]): 2520 and 2097 and 2058 and 2158 | Binding of nGL liposomes relative to liposomes formulated with 3 mol% nGL 5 (Fig. 3g) (R122A Siglec-6 CHO cells): 0.83 and 0.93 and 0.81 and 1.01 | liposome binding, fluorescence signal (replicates) (R122A Siglec-6 CHO cells): 1939 and 2127 and 1908 and 2268

CCCCCCCCCCCCCCCCOCC(COCCCCCCCCCCCCCCCC)OCc1cn(CCO[C@@H]2O[C@H](CO)[C@@H](O[C@@H]3O[C@H](CO[C@]4(C(=O)O)C[C@H](O)[C@@H](NC(C)=O)[C@H]([C@H](O)[C@H](O)CO)O4)[C@H](O)[C@H](O)[C@H]3O)[C@H](O)[C@H]2NC(C)=O)nn1 [nGL 10]
nGLL binding to WT Siglec-6 CHO cells (in words) (WT Siglec-6 CHO cells): bound minimally | Binding of nGL liposomes relative to liposomes formulated with 3 mol% nGL 5 (Fig. 3g) (WT Siglec-6 CHO cells): 0.19 and 0.16 and 0.21 | liposome binding, fluorescence signal (replicates) (WT Siglec-6 CHO cells; [2]): 1069 and 1003 and 987 and 1125 | nGLL binding to R122A Siglec-6 CHO cells (in words) (R122A Siglec-6 CHO cells): bound minimally | Binding of nGL liposomes relative to liposomes formulated with 3 mol% nGL 5 (Fig. 3g) (R122A Siglec-6 CHO cells): 0.23 and 0.15 and 0.27 | liposome binding, fluorescence signal (replicates) (R122A Siglec-6 CHO cells): 899 and 894 and 758 and 962

CC(=O)N[C@H]1[C@H]([C@H](O)[C@H](O)CO)O[C@@](O[C@H]2[C@@H](O)[C@@H](CO)O[C@@H](O[C@H]3[C@H](O)[C@@H](O)C(O)O[C@@H]3CO)[C@@H]2O)(C(=O)O)C[C@@H]1O (stereo partly drawn) [GM3 trisaccharide, α-Neup5Ac-(2 → 3)-β-lactose]
Kd (Siglec-1 fragment): 500 ± 100 µM

CCCCCCCCCCCCCCCCOCC(COCCCCCCCCCCCCCCCC)OCC(=O)NCCO[C@@H]1O[C@H](CO)[C@@H](O[C@@H]2O[C@H](CO)[C@H](O[C@@H]3O[C@H](CO)[C@H](O)[C@H](O[C@@H]4O[C@H](CO)[C@H](O)[C@H](O)[C@H]4O)[C@H]3NC(C)=O)[C@H](O[C@]3(C(=O)O)C[C@H](O)[C@@H](NC(C)=O)[C@H]([C@H](O)[C@H](O)CO)O3)[C@H]2O)[C@H](O)[C@H]1O [nGL 3]
Binding of liposomes to WT Siglec-6 CHO cells relative to liposomes formulated without a ligand (Fig. 3c) (WT Siglec-6 CHO cells; listed as GM1 Amide): 0.68 and 0.67 and 0.66 and 0.75 | nGLL binding to WT Siglec-6 CHO cells (in words) (WT Siglec-6 CHO cells): bound minimally | liposome binding, fluorescence signal (replicates) (WT Siglec-6 CHO cells; [3]): 541 and 535 and 525 and 596

CCCCCCCCCCCCCCCCOCC(COCCCCCCCCCCCCCCCC)OCC(=O)NCCO[C@@H]1O[C@H](CO)[C@@H](O[C@@H]2O[C@H](CO)[C@H](O)[C@H](O[C@]3(C(=O)O)C[C@H](O)[C@@H](NC(C)=O)[C@H]([C@H](O)[C@H](O)CO)O3)[C@H]2O)[C@H](O)[C@H]1O [nGL 4]
Binding of liposomes to WT Siglec-6 CHO cells relative to liposomes formulated without a ligand (Fig. 3c) (WT Siglec-6 CHO cells; listed as GM3 Amide): 2.34 and 2.47 and 2.38 and 2.75 | liposome binding, fluorescence signal (replicates) (WT Siglec-6 CHO cells; [3]): 713 and 752 and 727 and 839

asialo GM1 [GA1]
Liposome binding to Siglec-1-expressing CHO cells in the cell assay (Fig. 1f) (WT Siglec-1 CHO cells; 3% glycolipid in liposome, replicates): 71 and 68 | binding to WT Siglec-1 CHO cells (in words) (WT Siglec-1 CHO cells; cell assay): did not mediate binding | liposome binding, fluorescence signal (replicates) (WT Siglec-6 CHO cells; sheet Figure S22b, Sig-6): 66 and 69 and 61 and 64 | liposome binding, fluorescence signal (replicates) [1]: 60 and 57 and 55 and 52

CCCCCCCCCCCCCCCCOCC(COCCCCCCCCCCCCCCCC)OCc1cn(CCO[C@@H]2O[C@H](CO)[C@@H](O[C@@H]3O[C@H](CO[C@]4(C(=O)O)C[C@H](O)[C@@H](NC(C)=O)[C@H]([C@H](O)[C@H](O)CO)O4)[C@H](O)[C@H](O)[C@H]3O)[C@H](O)[C@H]2O)nn1 [nGL 8]
nGLL binding to WT Siglec-6 CHO cells (in words) (WT Siglec-6 CHO cells): bound minimally | Binding of nGL liposomes relative to liposomes formulated with 3 mol% nGL 5 (Fig. 3g) (WT Siglec-6 CHO cells): 0.05 and 0.03 and 0.06 and 0.07 | liposome binding, fluorescence signal (replicates) (WT Siglec-6 CHO cells; [2]): 720 and 670 and 748 and 768 | nGLL binding to R122A Siglec-6 CHO cells (in words) (R122A Siglec-6 CHO cells): bound minimally | Binding of nGL liposomes relative to liposomes formulated with 3 mol% nGL 5 (Fig. 3g) (R122A Siglec-6 CHO cells): 0.06 and 0.08 and 0.07 | liposome binding, fluorescence signal (replicates) (R122A Siglec-6 CHO cells): 599 and 635 and 605
